Experimental data: US9314458B2, “Topical use of ingenol-3-angelate or a salt thereof to treat skin cancer” (LEO Laboratories Limited, priority 2000, dated 2016)

Columns and labels:
rat brain PKC = test: PKC kinase activity, PepTag non-radioactive protein kinase assay; format: biochemical; conditions: PepTag gel; various dilutions of TPA; ether extract final dilution 1 in 5; crude sap and aqueous layer diluted 1/25
Description: The kinase activity of rat brain PKC (Promega) was determined using the Peptag™ Non-Radioactive Protein Kinase Kit (Promega). Using agarose gel electrophoresis the technique visualises the opposing electrostatic charge of a fluorescently labeled peptide ([sequence]) compared to the phosphorylated version of the same peptide.
The reaction mixture was separated by gel electrophoresis, showing migration of the unreacted substrate (a) to the anode (top), and the product (b), which is more negatively charged because of phosphorylation by PKC, moving towards the cathode (bottom).

PKCα = molecular target: T1, PKCα (Homo sapiens, UniProt P17252); format: cell-based; conditions: HeLa, one hour
T1 construct: host or cells: HeLa cells
Description: (§1) Five EGFP-PKC isoforms (Clontech) were available for this experiment, enabling the screening of the three predominant PKC families (i.e. classical, novel and atypical PKCs). The members of the various PKC families are α, β, and γ (classical), θ (novel) and ζ (atypical).
(§2) HeLa cells were plated out in a 24-well plate containing coverslips and transfected with PKC isoforms fused to EGFP, using a commercially available effectine-transfection kit (QIAGEN, Pty. Ltd.). Cells were exposed to the transfection reagents for 16-24 hr. Subsequently, transfected cells were treated for one hour with TPA (100 ng/mL), bryostatin-1 (5 pg/mL), PEP003 (2.25 μg/mL; 5 μM) or PEP005 ([…]) 1.5 μM). Following treatment, cells were fixed on coverslips and mounted on glass slides. The slides were subsequently examined visually by fluorescence microscopy, photographed, and over 150 cells were counted/treatment/PKC isoform. Counted cells were classified according to the localisation of the PKC-EGFP fluorescence as either cytoplasmic or plasma membrane using ImagePro™ 4.1 (FIG. 5). […] The number of these cells was also counted.

PKCβ = molecular target: T2, PKCβ (Homo sapiens, UniProt P05771); test: EGFP-PKC translocation in HeLa cells (PKCβ); format: cell-based; conditions: one hour
T2 construct: host or cells: HeLa cells
Description: as §1
as §2, with “counted. Results are presented as an average and standard deviation of percentages of cells (Table 1).” for “counted.”

PKCγ = molecular target: T3, PKCγ (Homo sapiens, UniProt P05129); test: EGFP-PKC translocation in HeLa cells (PKCγ); format: cell-based; conditions: one hour
T3 construct: host or cells: HeLa cells
Description: as §1
as §2, with “counted. Results are presented as an average and standard deviation of percentages of cells (Table 1).” for “counted.”

PKCθ = molecular target: T4, PKCθ (Homo sapiens, UniProt Q04759); test: EGFP-PKC translocation in HeLa cells (PKCθ); format: cell-based; conditions: one hour, same concentrations
T4 construct: host or cells: HeLa cells
Description: as §1
as §2, with “counted. Results are presented as an average and standard deviation of percentages of cells (Table 1).” for “counted.”

PKCζ = molecular target: T5, PKCζ (Homo sapiens, UniProt Q05513); test: EGFP-PKC translocation in HeLa cells (PKCζ); format: cell-based; conditions: one hour, same concentrations
T5 construct: host or cells: HeLa cells
T5 sequence (Q05513 1-592): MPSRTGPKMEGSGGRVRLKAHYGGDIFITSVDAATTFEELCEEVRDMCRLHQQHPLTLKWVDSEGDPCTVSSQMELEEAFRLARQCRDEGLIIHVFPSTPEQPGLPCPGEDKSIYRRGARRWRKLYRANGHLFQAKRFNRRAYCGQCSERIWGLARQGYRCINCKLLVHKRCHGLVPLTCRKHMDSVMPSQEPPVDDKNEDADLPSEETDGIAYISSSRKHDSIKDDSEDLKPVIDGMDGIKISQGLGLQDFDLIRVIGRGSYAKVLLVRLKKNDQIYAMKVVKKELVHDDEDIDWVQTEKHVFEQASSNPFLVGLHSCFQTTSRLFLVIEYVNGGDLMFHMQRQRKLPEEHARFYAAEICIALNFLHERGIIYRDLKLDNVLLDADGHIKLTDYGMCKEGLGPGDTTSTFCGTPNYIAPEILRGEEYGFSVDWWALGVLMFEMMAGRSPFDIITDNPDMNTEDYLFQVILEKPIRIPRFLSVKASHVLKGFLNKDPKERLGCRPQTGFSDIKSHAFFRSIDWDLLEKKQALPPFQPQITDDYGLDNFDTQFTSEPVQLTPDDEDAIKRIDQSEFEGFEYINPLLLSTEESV
Description: as §1
as §2, with “counted. Results are presented as an average and standard deviation of percentages of cells (Table 1).” for “counted.”

[1] = system: Human peripheral blood mononuclear cells; test: Phagocytic activity, nitroblue tetrazolium uptake; format: cell-based; conditions: 100 ng/mL, 20 min; controls <2%
Description: Human peripheral blood mononuclear cells (PBMC) prepared by standard Ficoll separation comprise approximately 5% monocytes. PBMC were incubated with dihydroethidium, a reduced form of the dye which becomes fluorescent when oxidized by a respiratory burst, then treated in 10% FCS-RPMI 1640 at 37° C. for 15 min with crude E. peplus extract diluted 1/1000 or 100 ng/mL TPA and analyzed by flow cytometry using conventional methods (Handbook of Flow Cytometry Methods, p. 151). The mean channel numbers for fluorescence were 618 (controls) and 818 (E. peplus extract diluted 1/1000). […] Phagocytic activity was determined by a conventional method (Hudson and Hay, Practical Immunology, 3rd edition, p. 74). […] The average of three fields gave figures of <2% (controls), 10% (TPA) and 8.7% (E. peplus sap) cells stained blue.

[2] = system: Peripheral blood mononuclear cells (granulocytes, monocytes, lymphocytes); test: Respiratory burst, DCFH-DA H2O2 flow cytometry; format: cell-based; conditions: bisindolylmaleimide 10 ng/mL or 1 ng/mL
Description: Experiments were also carried out using 2′,7′-dichlorofluorescein diacetate (DCFH-DA) to measure the production of H2O2. (J P Robinson, Oxidative burst methods, in Handbook of Flow Cytometry Methods, Wiley-Liss Inc, pp 147-149, 1993). H2O2 oxidizes the non-fluorescent probe (DCFH-DA) to a fluorescent probe that can then be detected by a flow cytometer. Peripheral blood mononuclear cells (PBMC) were extracted from a donor blood sample by lysis of heparinized blood and used in a suspension of 1×10^6/mL of phosphate buffer, pH 7.3. The cells were then incubated with DCFH-DA (1 μL/mL of 20 mM stock) for 15 minutes to allow it to be taken up and trapped by hydrolysis with cellular esterases. The cells were then stimulated by test compounds for 15 min at 37° C. Controls included in the experiment were unloaded control (cells with no DCFH-DA) and loaded control (cells with DCFH-DA, but no stimulation). These were used to monitor the non-specific oxidation of unstimulated cells. The cells were then analyzed on the flow cytometer (excitation at 488 nm, emission at 525±20 nm), gating each sample for individual cell populations—granulocytes, monocytes and lymphocytes (Table 3).

[3] = system: EBV in Burkitt's lymphoma cell lines (Mutul, BL74) and an LCL; test: EBV activation (VCA western blot) in Burkitt's lymphoma cell lines and LCL; format: cell-based
Description: To ensure that equal amounts of each sample were analyzed, the gels were stained with Coomassie blue and the loadings were adjusted to make them equal. […] Next the PEP003 and PEP004 were assayed on two Burkitt's lymphoma cell lines and an LCL. This time only concentrations of 10^−5 and 10^−7 were used.

[4] = TPA 100 ng/mL, bryostatin-1 5 pg/mL, PEP003 2.25 μg/mL (5 μM), PEP005 670 μg/mL (1.5 μM)

T2 sequence (P05771 whole entry, species assumed): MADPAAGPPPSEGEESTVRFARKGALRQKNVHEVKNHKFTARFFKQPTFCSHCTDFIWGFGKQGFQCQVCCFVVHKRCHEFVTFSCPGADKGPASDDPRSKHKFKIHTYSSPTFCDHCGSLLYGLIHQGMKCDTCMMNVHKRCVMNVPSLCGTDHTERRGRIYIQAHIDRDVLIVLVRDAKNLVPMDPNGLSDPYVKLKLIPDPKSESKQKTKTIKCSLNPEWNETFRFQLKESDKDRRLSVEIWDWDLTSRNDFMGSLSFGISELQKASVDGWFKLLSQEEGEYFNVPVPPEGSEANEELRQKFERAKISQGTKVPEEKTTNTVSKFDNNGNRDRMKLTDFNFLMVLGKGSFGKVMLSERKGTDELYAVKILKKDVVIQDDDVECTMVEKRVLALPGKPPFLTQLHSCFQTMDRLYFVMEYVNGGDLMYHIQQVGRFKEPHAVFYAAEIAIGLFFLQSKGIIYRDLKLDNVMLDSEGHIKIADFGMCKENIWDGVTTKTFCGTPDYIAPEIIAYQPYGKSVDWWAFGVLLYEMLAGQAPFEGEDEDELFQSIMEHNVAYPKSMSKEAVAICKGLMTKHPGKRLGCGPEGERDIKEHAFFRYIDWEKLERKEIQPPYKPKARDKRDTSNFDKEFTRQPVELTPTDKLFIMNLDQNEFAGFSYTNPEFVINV
T4 sequence (Q04759 whole entry): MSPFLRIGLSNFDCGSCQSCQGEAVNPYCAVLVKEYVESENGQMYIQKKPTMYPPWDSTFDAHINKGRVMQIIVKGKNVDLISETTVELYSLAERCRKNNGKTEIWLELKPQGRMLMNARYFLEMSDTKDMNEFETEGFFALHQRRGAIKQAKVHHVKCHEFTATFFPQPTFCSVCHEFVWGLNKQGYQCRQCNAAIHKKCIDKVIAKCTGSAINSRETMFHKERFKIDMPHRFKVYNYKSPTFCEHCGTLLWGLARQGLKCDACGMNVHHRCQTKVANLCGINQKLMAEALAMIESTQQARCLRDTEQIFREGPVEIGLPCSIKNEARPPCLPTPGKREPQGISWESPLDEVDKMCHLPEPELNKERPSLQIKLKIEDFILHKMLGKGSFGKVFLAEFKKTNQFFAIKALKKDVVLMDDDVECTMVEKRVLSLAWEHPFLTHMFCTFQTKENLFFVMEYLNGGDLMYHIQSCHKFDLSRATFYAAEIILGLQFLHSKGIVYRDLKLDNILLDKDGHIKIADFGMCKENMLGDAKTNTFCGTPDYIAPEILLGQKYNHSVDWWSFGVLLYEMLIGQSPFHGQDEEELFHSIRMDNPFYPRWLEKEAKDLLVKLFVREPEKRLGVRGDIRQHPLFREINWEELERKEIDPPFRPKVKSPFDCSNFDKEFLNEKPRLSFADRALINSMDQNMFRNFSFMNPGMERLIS

In the case of `CCCCCCCCCCCCCC(=O)O[C@@H]1[C@@H](C)[C@@]2(O)[C@@H](C=C(CO)C[C@]3(O)C(=O)C(C)=C[C@@H]23)C2C(C)(C)[C@@]21OC(C)=O` (single isomer, unassigned) [TPA], the “activation of PKC (FIG. 1)” value (rat brain PKC) is reported as “showed activation of PKC”, the “number of PKCα transfected cells displaying Golgi-like fluorescence” value (PKCα) is reported as “increase in the number of cells displaying Golgi-like fluorescence” and the “translocation of PKCα from cytoplasm to plasma membrane” value (PKCα; TPA 100 ng/mL, bryostatin-1 5 pg/mL, PEP003 2.25 μg/mL (5 μM)) is reported as “translocated from the cytoplasm to the plasma membrane”. The “number of PKCβ transfected cells with Golgi-like fluorescence” value (PKCβ) was “increase in Golgi-like fluorescence”, the “translocation of PKCβ from cytoplasm to plasma membrane” value (PKCβ; [4]) was “translocated from the cytoplasm to the plasma membrane” and the “number of PKCγ transfected cells displaying Golgi-like fluorescence” value (PKCγ) was “increase in the number of cells displaying Golgi-like fluorescence”. For the same compound, the “translocation of PKCγ from cytoplasm to plasma membrane” value (PKCγ; [4]) was “translocated from the cytoplasm to the plasma membrane”, the “translocation of PKCθ” value (PKCθ) was “translocated” and the “translocation of PKCζ” value (PKCζ) was “fail to induce translocation”. For the same compound, the “cells stained blue (NBT)” value [1] was 10%, the “respiratory burst with bisindolylmaleimide added” value [2] was “blocked” and the “induction of VCA in Mutul cells” value [3] was “did not”.
